Data on 2 molecules can be found in paper PMC8330742, “New benzothieno[2,3-c]pyridines as non-steroidal CYP17 inhibitors: design, synthesis, anticancer screening, apoptosis induction, and in silico ADME profile studies” (Journal of Enzyme Inhibition and Medicinal Chemistry, 2021).

The test system of experiment [1] is plasma testosterone. As to the kind of experiment: Testosterone ELISA assay in mice prostate cancer model. Format: in vivo. The conditions noted are these: 5 mg/kg i.p., 5 days a week, ELISA, 5 mg/kg. As to the method:
(§1) A total of 16 mice from the TRAMP/FVB background ([…], male, average 45 days, average weight […], mice with prostate cancer) were taken and divided into 2 groups with 8 animals in each group. One group of mice was given a drug in 0.2 ml of DMSO and phosphate-buffered saline (1:10) ratio (5 mg/kg body weight, i.p., 5 days a week). The control group animals were treated with 0.2 ml of DMSO and phosphate-buffered saline (1:10) ratio. A total of eight mice, four animals from each group, were examined at 13 weeks of age, and the remaining animals from each group were examined at 20 weeks for prostate tumour development. Treatment was stopped 24 h before killing the animals.
The BioVendor mouse/rat testosterone ELISA assay is a competitive immunoassay for the measurement of testosterone in rat and mouse serum or plasma based on the principle of competitive binding. An unknown amount of testosterone present in the sample (plasma or serum) and a known amount of testosterone conjugated to horseradish peroxidase compete for the binding sites of testosterone antiserum coated to the wells of a microplate. The sample was incubated with the microplate for 1 h, then washed four times. The HRP substrate solution was added followed by the stop solution. Colour change has been observed, and the optical density was measured at 450 nm.
Assay procedures: Sufficient number of microplate wells were prepared to accommodate standard and samples in duplicates. The standard, sample, and control (10 µL each) were dispensed with new disposable tips into appropriate wells. Incubation buffer 100 µL was dispensed into each well. Afterward, enzyme conjugate (50 µL) was added to each well and incubated for 60 min at room temperature on a microplate mixer. The content of the wells was discarded, and the wells were rinsed 4 times with diluted wash solution (300 µL per well). The substrate solution (200 µL) was added to each well and incubated in the dark without shaking for 30 min. The reaction was stopped by adding a stop solution (2 N hydrochloric acid solution, 50 µL) to each well. The absorbance of each well was determined at 450 nm.

Experiment [2] relates to prostate cancer cell line (PC-3). Nature of the experiment: MTT cytotoxicity assay. It counts as cell-based, human. The conditions noted are these: Homo sapiens. As to the method:
The MTT method for monitoring in vitro cytotoxicity was used with multiwell plates. Three human cell lines, namely prostate cancer cell line (PC-3), renal cancer cell line (UO-31), and breast cancer cell line (MCF-7) were obtained from the American Type Culture Collection ATCC, Manassas, VA, USA). The cells were trypsinized and seeded in 96 well plates with a density of 1.2 − 1.8 × 10,000 cells/well for 24 h at 37 °C. After treating the cells with five concentrations of compound 5c (0.01, 0.1, 1, 10, 100 µM), an MTT solution (Sigma Co., St. Louis, MO, USA) (5 mg/mL in phosphate buffer solution) was applied to each well and […]. The plates were cultivated in 5% CO2 for 4 h at 37 °C. Successively, the remaining formazan crystals were dissolved in 100 µl of DMSO, and the absorbance was determined with the ROBONIK P2000 spectrophotometer at a wavelength of 570 nm. The obtained values were analysed using Gen5 software (BioTek, UK). The proliferation percentage in each treated cell line was standardised based on their control wells. Both tests have been conducted in triplicate. The IC50 values were calculated using sigmoidal dose-response curve fitting models. […] Each test included a blank containing a complete medium without cells.
A general note: Tetrazolium dyes change colour on reduction, which living cells bring about.

Experiment [3] concerns CYP17 enzyme. As to the kind of experiment: CYP17 enzyme ELISA in mice prostate cancer model. It counts as in vivo. The conditions noted are these: 5 mg/kg i.p., 5 days a week, ELISA of tissue (Mice testis). As to the method: as §1
BioSource 2704060 96 assay kit is a sandwich enzyme immunoassay for in vitro quantitative measurement of CYP17 enzyme activity in mouse tissue homogenates, cell lysates, cell culture supernatant, and other biological fluids. Tested tissues were rinsed in ice-cold PBS to remove excess blood and weighed before homogenisation. The tissues were minced and homogenised in fresh lysis buffer with a glass homogeniser. (catalog: IS007, different lysis buffer needs to be chosen based on subcellular location of the target protein) (w:v = 1:20–1:50, e.g. 1 ml lysis buffer is added in 20–50 mg tissue sample) The resulting suspension was sonicated with an ultrasonic cell disrupter till the solution was clarified. The homogenates were centrifuged for 5 min at 10,000 × g, and the supernatant was collected. An Aliquot was assayed and stored at ≤ −20 °C.
The assay sample and standard were incubated together with CYP-HRP conjugate in an appropriate number of microplates pre-coated with an antibody specific for the CYP17 enzyme for 1 h. After the incubation period, the wells were decanted and washed five times. The wells were then incubated with a substrate for the HRP enzyme. […] Colour intensity was measured spectrophotometrically at 450 nm in a microplate reader. […]
Assay procedures: Wells for a standard, blank, and sample were prepared. […] The absorbance was measured immediately at 450 nm.

The subject of experiment [4] is CYP17. The conditions noted are these: Figure 1, known CYP17 inhibitors; cited from earlier work.
Experiment [5] relates to WI-38 human cell line. As to the kind of experiment: In vitro cytotoxicity on WI-38 human cell line (MTT). It counts as cell-based. The conditions noted are these: WI-38 normal human cell line. As to the method: Cell Line cells were obtained from American Type Culture Collection and were cultured using DMEM (Invitrogen/Life Technologies) supplemented with 10% FBS (Hyclone), 10 µg/ml of insulin (Sigma), and 1% penicillin-streptomycin. All of the other chemicals and reagents were obtained from Sigma or Invitrogen. Plate cells were incubated (cells density 1.2–1.8 × 10,000 cells/well) in a volume of 100 µL complete growth medium and 100 ul of the tested compound per well in a 96-well plate for 24 h before the MTT assay. The cultures were removed from the incubator into a laminar flow hood or other sterile work area followed by the addition of reconstituted MTT in an amount equal to 10% of the culture medium volume, then incubated for an additional 2 h. After the incubation period, cultures were removed from the incubator, and the resulted formazan crystals were dissolved by adding an amount of MTT solubilisation solution [M-8910] equal to the original culture medium volume, then the absorbance at a wavelength of 570 nm was measured. Finally, the IC50 of the tested compound compared to the reference was calculated using GraphPad Prism software.

The mark [6] stands for this setting: listed as Abireratone reference.
The mark [7] stands for this setting: listed as abiraterone reference.

For orientation: IC50 means the concentration that gives 50% inhibition. With `C[C@]12CC[C@H](O)CC1=CC[C@@H]1[C@@H]2CC[C@]2(C)C(c3cccnc3)=CC[C@@H]12` [Abiraterone, abiraterone, reference compound], the “Plasma testosterone aver. conc.” value in experiment [1] (setting [6]) came out at 13.79 nM; in experiment [1] (setting [7]), 13.79 ± 0.33 nM. The values for the IC50 in experiment [2] and in experiment [4] were 8.3 µM and 0.002 µM, respectively. The “CYP17 enzyme aver. conc.” value came to 10.72 nM in experiment [3] (setting [6]) and 10.72 ± 0.17 nM in experiment [3] (setting [7]).
Regarding `CN[C@@H]1C[C@H]2O[C@@](C)([C@@H]1OC)n1c3ccccc3c3c4c(c5c6ccccc6n2c5c31)C(=O)NC4` [staurosporine, reference compound], the IC50 in experiment [2] came to 5.1 µM; in experiment [5], 19.2 µM.
